Measurements: publication PMC7762498, “Demethoxycurcumin analogue DMC-BH exhibits potent anticancer effects on orthotopic glioblastomas” (Aging (Albany NY), 2020)

What was measured:
Plasma protein binding = format: in vitro ADME
CYP-450 = assay: CYP-450-related metabolism; format: in vitro ADME
primary glioma cells = assay: MTT cell viability assay, primary glioma cells; format: cell-based; settings: 72 h
Protocol: (§1) To investigate the cytotoxicity of DMC-BH on glioma cells (Figure 1A), we used an MTT assay to assess viability changes in SHG-44, C6, U251, U87, A172 and primary glioma cells treated with various concentrations of DMC-BH for 24, 48 or 72 hours (Figure 1B–1H). […] U251 and SHG-44 cells were more sensitive to DMC-BH. We then used the human glial cell line, HEB, to evaluate the toxicity of DMC-BH in normal cells. […] DMC-BH was not toxic to normal cells.
(§2) The human GBM U87-luc cell line was purchased from the Shanghai Sunbio Medical Biotechnology Co., Ltd. (Shanghai, China). Cells were cultured in DMEM supplemented with 10% fetal bovine serum (FBS) and maintained in an incubator at 37° C and 5% CO2. After cells were routinely passaged at 2- to 3-day intervals, animal experiments were carried out when the cells entered exponential growth phase. Rat C6, human SHG-44, U87, A172 and U251 glioma cells were obtained from the Shanghai Institute of Cell Biology, Chinese Academy of Sciences (Shanghai, China). Primary glioma cells were preserved by our laboratory from previous studies. […]
(§3) Glioblastoma cells were seeded into 96-well plates and exposed to vehicle (PBS) or different concentrations of DMC-BH for 24, 48 or 72 hours. Cell viability was measured using an MTT assay and was expressed as a ratio to the absorbance value of the control cells at 570 nm.

in vivo = settings: female, ICR, mouse, ip
ICR mice = assay: in vivo; settings: mouse; for Mortality rate (%) / No. of dead mice: female, ICR, 14 days
[1] = tested on: glioblastoma multiforme (GBM) patient derived tumors; assay: Patient-derived tumor xenograft (PDTX) model; format: in vivo, mice
Text: In recent years, PDTX models have been used to mimic human tumors. These models are more clinically relevant than cell line-based xenograft models. Thus, we performed an in vivo study in a PDTX tumor model by implanting human glioma samples from a patient donor into B-NDG mice (Figure 7A).
Figure 7 In vivo anti-tumor activity of DMC-BH in the PDTX tumor model. (A) A scheme illustrating the process of creating the patient-derived tumor model. (B) Tumor growth curves of mice after treatment with 7.5 mg/kg, 15 mg/kg or 30 mg/kg DMC-BH or 20 mg/kg TMZ. (C) Average tumor weight at day 21 after different treatments. (D) Quantification of the Ki67-positive area in different treatment groups. (E) Representative H&E-stained tumor slices and Ki67 immunofluorescence labeled tumor tissue sections from different treatments groups. The data are shown as mean ± SD (n = 6).
Surgically resected human glioma tissue was obtained from a cancer patient (#0407002) following an approved Nanjing Medicinal University Institutional Review Board protocol. Within 2 hours of surgical resection, tumor tissues were cut into 1-2 mm fragments and implanted into SCID mice (B-NDG, 6 weeks old, female) using a surgical procedure approved by Nanjing Medicinal University Institutional Animal Care and Use committee. After surgery, tumor growth in the mice was monitored by palpating the abdomen twice per week. Tumors grew to 5-10 mm in diameter in about 8-10 weeks. The SCID mice bearing PDTX tumors were sacrificed, and tumor fragments of 1 to 2 mm in size were implanted into 6-week-old female SCID mice. Over 60% of the mice experienced tumor growth in approximately 6 weeks.

U87 glioma cells = assay: MTT cell viability assay, U87; format: cell-based; settings: Homo sapiens, U-87 MG, 72 hours
Protocol: as §1, §2, §3

A172 glioma cells = assay: MTT cell viability assay, A172; format: cell-based; settings: Homo sapiens, A 172, 72 hours
Protocol: as §1, §2, §3

SHG-44 glioma cells = assay: MTT cell viability assay, SHG-44; format: cell-based; settings: Homo sapiens, SHG-44 cells, 72 hours
Protocol: as §1, §2, §3

C6 glioma cells = assay: MTT cell viability assay, C6; format: cell-based; settings: Rattus norvegicus, 72 hours
Protocol: as §1, §2, §3

U251 glioma cells = assay: MTT cell viability assay, U251; format: cell-based; settings: Homo sapiens, U-251, 72 hours
Protocol: as §1, §2, §3

[2] = tested on: human glial cell line, HEB; assay: MTT assay on normal glial cells; format: cell-based; settings: 24 hours of incubation with 32 μM
Protocol: as §1, §3

[3] = B-NDG mice, DMC-BH 7.5, 15 or 30 mg/kg, TMZ 20 mg/kg

In the case of COc1cc(C=CC(=O)CC(=O)C=Cc2ccc(O)c(CN3CCCC3)c2)ccc1O [DMC-BH, 1-[4-Hydroxy-3-(pyrrolidin-1-ylmethyl)phenyl]-7-(4-hydroxy-3-methoxyphenyl) hepta-1,6-diene-3,5-dione], the fraction unbound (Plasma protein binding) is reported as 0.038, the CYP-450-related metabolism (CYP-450) is reported as “low” and the IC50 (primary glioma cells; primary glioma cells sample 1, 72 hours) is reported as 8.05 µM. The IC50 (primary glioma cells; primary glioma cells sample 2, 72 hours) was 4.61 µM, the LD50 at 14 days (in vivo) was 48.1 mg/kg and the “Mortality rate (%)” value (ICR mice; 5 mg/kg) was 0.0%. The “No. of dead mice” value (ICR mice; 5 mg/kg) was 0, the “Mortality rate (%)” value (ICR mice; 10 mg/kg) was 0.0% and the “No. of dead mice” value (ICR mice; 10 mg/kg) was 0. The “Mortality rate (%)” value (ICR mice; 20 mg/kg) was 0.0%, the “No. of dead mice” value (ICR mice; 20 mg/kg) was 0 and the “Mortality rate (%)” value (ICR mice; 30 mg/kg) was 10.0%. The “No. of dead mice” value (ICR mice; 30 mg/kg) was 1, the “abnormalities compared to the control mice” value (ICR mice) was “no abnormalities” and the “tolerability in PDTX model” value [1, 3] was “tolerated”. The “tumor growth in PDTX model” value [1, 3] was “significant tumor regression”, the “number of Ki67-positive cells in tumor” value ([1]; PDTX tumor, 20 mg/kg, compared with the control tumor) was “marked decrease” and the IC50 (U87 glioma cells) was 4.77 µM. It also gave an IC50 (A172 glioma cells) of 5.68 µM, an IC50 (SHG-44 glioma cells) of 3.08 µM and an IC50 (C6 glioma cells) of 5.79 µM. The IC50 (U251 glioma cells) was 2.52 µM and the “viability of HEB cells” value [2] was “not reduced markedly”.
